Test results reported in patent publication US20090099029A1, “Methods and substrates for conducting assays” (Invitrogen Corporation, priority 2005, published 2009).

Tests used:
Assay in all cases: Further analysis of a plurality of inhibitors and a plurality of kinases (Table 5 inhibition results)
Assay type in all cases: biochemical
Design in all cases: scale not given here
[1] = molecular target: T1, kinases of Table 5 (Homo sapiens, UniProt P54753); conditions: for Inhibition level: kinase EPHB3; for Inhibition Results (Level): kinase EPHB3 (Part II, plate B5, Domain 1)
T1 sequence (P54753 34-998): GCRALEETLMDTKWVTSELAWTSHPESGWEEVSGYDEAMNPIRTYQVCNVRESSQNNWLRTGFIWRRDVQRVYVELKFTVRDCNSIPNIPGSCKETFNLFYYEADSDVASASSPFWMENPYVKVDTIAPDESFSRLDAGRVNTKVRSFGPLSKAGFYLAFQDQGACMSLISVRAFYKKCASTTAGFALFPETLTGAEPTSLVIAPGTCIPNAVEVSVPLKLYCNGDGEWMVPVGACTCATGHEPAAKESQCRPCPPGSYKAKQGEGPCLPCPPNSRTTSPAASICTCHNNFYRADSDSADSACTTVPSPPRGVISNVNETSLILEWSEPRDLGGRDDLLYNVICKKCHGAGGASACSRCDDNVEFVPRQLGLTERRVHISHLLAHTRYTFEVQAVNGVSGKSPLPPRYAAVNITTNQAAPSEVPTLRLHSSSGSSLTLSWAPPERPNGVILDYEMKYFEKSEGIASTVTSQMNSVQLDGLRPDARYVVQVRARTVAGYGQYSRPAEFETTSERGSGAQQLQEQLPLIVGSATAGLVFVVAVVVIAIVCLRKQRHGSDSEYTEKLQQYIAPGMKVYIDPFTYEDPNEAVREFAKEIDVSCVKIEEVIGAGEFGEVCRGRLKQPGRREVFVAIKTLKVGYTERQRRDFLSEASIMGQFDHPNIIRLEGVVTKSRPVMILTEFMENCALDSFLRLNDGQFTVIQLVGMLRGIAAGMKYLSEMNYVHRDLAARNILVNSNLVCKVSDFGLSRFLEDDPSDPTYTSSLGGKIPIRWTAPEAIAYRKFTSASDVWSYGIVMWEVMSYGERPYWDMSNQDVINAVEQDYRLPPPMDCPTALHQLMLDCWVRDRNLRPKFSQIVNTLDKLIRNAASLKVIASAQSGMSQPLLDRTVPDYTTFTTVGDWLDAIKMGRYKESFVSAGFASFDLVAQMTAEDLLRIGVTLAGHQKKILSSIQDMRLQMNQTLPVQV
Excerpt: (§1) The wash solution is then discarded.

[2] = molecular target: T2, kinases of Table 5 (Homo sapiens, UniProt Q9UHD2); conditions: kinase TBK1 (Part I, plate G1, Domain 0); inhibitor 100 uM
T2 sequence (Q9UHD2 1-729): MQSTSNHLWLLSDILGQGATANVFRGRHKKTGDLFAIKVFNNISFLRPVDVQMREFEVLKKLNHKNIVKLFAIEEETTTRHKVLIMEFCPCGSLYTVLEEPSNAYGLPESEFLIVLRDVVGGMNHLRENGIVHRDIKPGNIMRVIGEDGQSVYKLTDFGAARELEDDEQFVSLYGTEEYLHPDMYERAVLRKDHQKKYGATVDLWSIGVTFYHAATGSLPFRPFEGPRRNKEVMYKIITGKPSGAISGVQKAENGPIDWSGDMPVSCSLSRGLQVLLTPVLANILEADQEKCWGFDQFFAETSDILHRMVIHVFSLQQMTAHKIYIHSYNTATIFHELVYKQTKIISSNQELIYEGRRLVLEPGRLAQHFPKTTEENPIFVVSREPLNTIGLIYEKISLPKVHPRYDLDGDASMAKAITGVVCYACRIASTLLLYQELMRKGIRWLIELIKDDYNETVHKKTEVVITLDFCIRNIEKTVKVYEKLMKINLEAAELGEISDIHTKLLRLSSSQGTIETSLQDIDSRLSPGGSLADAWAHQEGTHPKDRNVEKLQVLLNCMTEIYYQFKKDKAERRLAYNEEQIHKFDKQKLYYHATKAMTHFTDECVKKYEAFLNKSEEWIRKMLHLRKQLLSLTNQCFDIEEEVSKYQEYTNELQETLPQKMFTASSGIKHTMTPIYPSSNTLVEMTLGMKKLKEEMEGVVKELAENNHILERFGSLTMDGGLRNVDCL
Excerpt: as §1

[3] = molecular target: kinases of Table 5 (Homo sapiens, UniProt P37173); conditions: kinase TGFBR2 (Part I, plate C7, Domain 1)
kinases of Table 5 (Homo sapiens, UniProt P37173), sequence (P37173 23-567): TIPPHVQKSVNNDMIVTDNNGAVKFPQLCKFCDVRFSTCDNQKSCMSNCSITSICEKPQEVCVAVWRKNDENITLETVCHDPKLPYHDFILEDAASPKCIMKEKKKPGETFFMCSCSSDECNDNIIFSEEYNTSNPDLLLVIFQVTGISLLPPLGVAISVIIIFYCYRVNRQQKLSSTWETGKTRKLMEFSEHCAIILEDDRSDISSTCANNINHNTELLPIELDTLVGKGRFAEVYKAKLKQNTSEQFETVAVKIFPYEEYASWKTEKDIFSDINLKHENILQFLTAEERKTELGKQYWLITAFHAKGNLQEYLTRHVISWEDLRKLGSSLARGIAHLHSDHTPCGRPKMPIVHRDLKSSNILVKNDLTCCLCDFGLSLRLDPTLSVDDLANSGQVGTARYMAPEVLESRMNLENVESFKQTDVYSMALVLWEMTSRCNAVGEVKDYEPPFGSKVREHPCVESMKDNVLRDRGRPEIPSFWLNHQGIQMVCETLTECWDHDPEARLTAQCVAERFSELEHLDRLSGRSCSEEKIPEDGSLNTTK
Excerpt: as §1

[4] = molecular target: kinases of Table 5 (Homo sapiens, UniProt Q13627); conditions: kinase DYRK1A (Part I, plate G6, Domain 1)
Excerpt: as §1

[5] = molecular target: kinases of Table 5 (Homo sapiens, UniProt Q9UIK4); conditions: for Inhibition level: kinase DAPK2; for Inhibition Results (Level): kinase DAPK2 (Part II, plate H3, Domain 1)
kinases of Table 5 (Homo sapiens, UniProt Q9UIK4), sequence (Q9UIK4 whole entry): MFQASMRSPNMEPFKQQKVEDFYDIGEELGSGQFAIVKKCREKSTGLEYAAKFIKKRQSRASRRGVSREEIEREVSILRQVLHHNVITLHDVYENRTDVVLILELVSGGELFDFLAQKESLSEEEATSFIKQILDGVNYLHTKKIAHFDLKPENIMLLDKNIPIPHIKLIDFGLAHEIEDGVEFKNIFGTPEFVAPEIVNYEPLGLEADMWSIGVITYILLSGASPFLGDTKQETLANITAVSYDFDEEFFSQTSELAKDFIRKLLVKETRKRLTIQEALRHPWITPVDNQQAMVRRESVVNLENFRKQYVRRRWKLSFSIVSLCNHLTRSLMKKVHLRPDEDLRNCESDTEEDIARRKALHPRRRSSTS
Excerpt: as §1

[6] = molecular target: T3, kinases of Table 5 (Homo sapiens, UniProt O43318); conditions: kinase MAP3K7 (Part I, plate G9, Domain 0)
T3 sequence (O43318 1-606): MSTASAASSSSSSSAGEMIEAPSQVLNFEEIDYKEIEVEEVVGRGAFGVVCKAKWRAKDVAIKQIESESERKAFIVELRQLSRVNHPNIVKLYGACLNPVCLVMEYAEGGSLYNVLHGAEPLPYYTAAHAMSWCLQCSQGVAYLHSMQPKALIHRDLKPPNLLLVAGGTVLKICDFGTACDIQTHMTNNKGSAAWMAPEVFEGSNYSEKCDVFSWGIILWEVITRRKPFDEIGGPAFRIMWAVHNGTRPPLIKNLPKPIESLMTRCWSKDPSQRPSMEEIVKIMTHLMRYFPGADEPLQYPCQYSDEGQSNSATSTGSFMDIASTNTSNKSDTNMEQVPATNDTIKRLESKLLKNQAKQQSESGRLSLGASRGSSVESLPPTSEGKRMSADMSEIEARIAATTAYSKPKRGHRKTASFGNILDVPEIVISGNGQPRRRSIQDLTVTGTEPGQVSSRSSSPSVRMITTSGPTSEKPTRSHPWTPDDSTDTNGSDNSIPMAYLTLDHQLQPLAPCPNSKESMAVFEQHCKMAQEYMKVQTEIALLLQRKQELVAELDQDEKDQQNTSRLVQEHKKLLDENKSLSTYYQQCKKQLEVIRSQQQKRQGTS
Excerpt: as §1

Compound	Inhibition level ([1]; inhibitor 100 uM)	Inhibition Results (Level) [2]	Inhibition Results (Level) ([3]; inhibitor 100 uM)	Inhibition Results (Level) ([4]; inhibitor 100 uM)	Inhibition level ([5]; inhibitor 100 uM)	Inhibition Results (Level) ([6]; inhibitor 100 uM)	Inhibition level ([1]; concentration not given)	Inhibition Results (Level) ([3]; inhibitor <3.7 mM)	Inhibition Results (Level) ([4]; inhibitor <3.7 mM)	Inhibition level ([5]; concentration not given)	Inhibition Results (Level) ([6]; inhibitor <3.7 mM)	Inhibition Results (Level) ([1]; inhibitor 100 uM)	Inhibition Results (Level) ([5]; inhibitor 100 uM)	Inhibition Results (Level) ([3]; inhibitor 90 uM)	Inhibition Results (Level) ([4]; inhibitor 90 uM)	Inhibition Results (Level) ([6]; inhibitor 90 uM)	Inhibition Results (Level) ([3]; inhibitor 21.5 uM)
N#C/C(=C/c1ccc(O)c(O)c1)C(=O)NCc1ccccc1 [AG 490]	2	2	2	2	2	0	–	–	–	–	–	–	–	–	–	–	–
COc1cc2ncnc(Nc3cccc(Cl)c3)c2cc1OC [AG 1478]	2	2	2	0	0	0	–	–	–	–	–	–	–	–	–	–	–
O=c1c(-c2ccc(O)cc2)coc2cc(O)cc(O)c12 [Genistein]	2	2	2	2	2	1	0	1	1	0	0	–	–	–	–	–	–
O=S(=O)(NCCNC/C=C/c1ccc(Br)cc1)c1cccc2cnccc12 [H-89]	–	2	2	2	–	2	–	–	–	–	–	1	2	–	–	–	–
CC(C)(C)n1nc(-c2ccc(Cl)cc2)c2c(N)ncnc21 [PP2]	2	1	2	1	2	2	–	–	–	–	–	–	–	–	–	–	–
O=c1c(O)c(-c2ccc(O)c(O)c2)oc2cc(O)cc(O)c12 [Quercetin]	–	0	0	–	–	–	–	–	–	–	–	2	0	–	–	–	–
Cn1cc(C2=C(c3cn(CCCSC(=N)N)c4ccccc34)C(=O)NC2=O)c2ccccc21 [Ro-31-8220]	2	2	2	2	2	2	0	–	–	2	–	–	–	2	0	2	–
CC(=O)c1c(O)c(C)c(O)c(Cc2c(O)c3c(c(C(=O)/C=C/c4ccccc4)c2O)OC(C)(C)C=C3)c1O [Rottlerin (Mallotoxin)]	–	1	2	0	–	2	–	–	–	–	–	2	1	–	–	–	–
CN[C@@H]1C[C@H]2O[C@@](C)([C@@H]1OC)n1c3ccccc3c3c4c(c5c6ccccc6n2c5c31)C(=O)NC4 [Staurosporine]	–	–	–	–	–	–	0	–	–	2	–	–	–	–	–	–	2
